In brackets after ≈: the same amount, converted by molar mass. Entries after “also recorded” stand apart in the source; their conditions may differ. Where two headings read alike, the source gives them in different places.
Experiments:
[1] = system: vancomycin-resistant Enterococcus faecalis (VanA VRE, BM4166); conditions: BM 4166; previously reported data; cited from earlier work
[2] = system: methicillin and oxacillin-resistant Staphylococcus aureus subsp. aureus (MRSA strain ATCC 43300); conditions: previously reported data; cited from earlier work
[3] = system: vancomycin-resistant Enterococcus faecalis (VanB VRE, strain ATCC 51299); conditions: previously reported data; cited from earlier work
[4] = system: Enterococcus faecium (VanA VRE, ATCC BAA-2317); conditions: previously reported data; cited from earlier work
[5] = system: vancomycin-sensitive Staphylococcus aureus (VSSA strain ATCC 25923); conditions: previously reported data; cited from earlier work
[6] = system: VanA VRE (E. faecalis BM 4166 and E. faecium ATCC BAA-2317); assay: Cell wall biosynthesis inhibition assay (accumulation of UDPMurNAc-pp 19); type: cell-based, Enterococcus faecalis; Enterococcus faecium; conditions: 35 μg/mL, tetracycline pretreated VanA VRE, 30 minutes, 37° C.
From the text: The inhibition of bacterial cell wall synthesis was established in an assay that quantitates the accumulation of the peptidoglycan precursor UDP-N-acetyl-muramyl-depsipentapeptide (Compound 19, UDPMurNAc-pp), resulting from inhibited cell wall incorporation following antibiotic treatment. […] This procedure was reduced in scale and modified to enlist reverse-phase HPLC separation, UV detection, and calibration curve determination of the amount of isolated 19, permitting use with limited sample sizes. A larger scale isolation and full characterization of 19 provided the material needed to establish a linear calibration curve.
The bacterial suspension was heated at 100° C. for 15 minutes to release cytosolic 19. The entire supernatant was analyzed by semi-preparative reverse-phase HPLC with a single injection and the amount of 19 was quantitated with use of the calibration curve.
Cultures of vancomycin-resistant Enterococcus faecalis (VanA VRE, BM4166) and Enterococcus faecium (VanA VRE, ATCC BAA-2317) were inoculated and grown in an orbital shaker at 37° C. in 100% brain-heart infusion broth for 12 hours. The above bacterial solution was subjected to a subculture to obtain fresh mid-log phase bacterial cells (total volume of bacterial suspension=5 mL, incubation time=6 hours, OD600=0.6). […] Vancomycin analogues were added and the mixture was incubated at 37° C. for a further 30 minutes.
After the bacteria were harvested (3000 rpm, 4° C., 20 minutes), this bacterial precipitate was washed and resuspended in 5 mM glucose and 5 mM HEPES buffer (500 μL, 1:1, pH=7.2). This bacterial suspension was heated at 100° C. for 15 minutes and centrifuged (13000 rpm, 25° C., 10 minutes). […] [*****Allen et al., Antimicrob. Agents Chemother. 1996, 40(10):2356-2362]; Liu et al., J. Am. Chem. Soc. 2001, 123:9916-9917.] The amount of UDP Mur N-Ac pentapeptide (19) was quantified by use of calibration curves for E. faecalis BM4166, and for E. faecium ATCC BAA-2317 based on the area under the curve (AUC).

[7] = system: Enterococcus faecium (VanA VRE, ATCC BAA-2317); assay: In vitro antimicrobial assay (MIC), VanA E. faecium; type: cell-based; conditions: for antibiotic susceptibility profile of the strain: VanA E. faecium ATCC BAA-2317
From the text: (§1) One day before a study was run, fresh cultures of vancomycin-sensitive Staphylococcus aureus (VSSA strain ATCC 25923), methicillin and oxacillin-resistant Staphylococcus aureus subsp. aureus (MRSA strain ATCC 43300), vancomycin-resistant Enterococcus faecalis (VanA VRE, BM4166), Enterococcus faecium (VanA VRE, ATCC BAA-2317), vancomycin-resistant Enterococcus faecalis (VanB VRE, strain ATCC 51299), Escherichia coli (ATCC 25922), Acinetobacter baumannii (ATCC BAA-1710), Pseudomonas aeruginosa (ATCC 15442), Klebsiella pneumoniae (ATCC 700603) were inoculated and grown in an orbital shaker at 37° C. in 100% Mueller-Hinton broth (VSSA, MRSA and VanB VRE), 100% brain-heart infusion broth (VanA VRE, A. baumannii and K. pneumoniae) or 100% Luria broth (E. coli and P. aeruginosa). After 24 hours, the bacterial stock solutions were serially diluted with the culture medium (10% Mueller-Hinton broth for VSSA, MRSA and VanB VRE or 10% brain-heart infusion broth for VanA VRE A. baumannii and K. pneumoniae or 10% Luria Broth for E. coli and P. aeruginosa) to achieve a turbidity equivalent to a 1:100 dilution of a 0.5 M McFarland solution. This diluted bacterial stock solution was then inoculated in a 96-well V-shaped glass coated microtiter plate, supplemented with serial diluted aliquots of the antibiotic solution in DMSO (4 μL), to achieve a total assay volume of 0.1 mL. The plate was then incubated at 37° C. for 18 hours, after which minimal inhibitory concentrations (MICs) were determined by monitoring the cell growth (observed as a pellet) in the wells.
(§2) The lowest concentration of antibiotic (in μg/mL) capable of eliminating cell growth in the wells is the reported MIC value. The reported MIC values for the vancomycin analogues were determined against vancomycin as a standard in the first well.*
(§3) [*Clinical and Laboratory Standards Institute. Methods for Dilution Antimicrobial Susceptibility Tests for Bacteria That Grow Aerobically; Approved Standard, 7th ed.; CLSI document M07-A8; Clinical and Laboratory Standards Institute: Wayne, Pa., 2009.]

[8] = system: vancomycin-resistant Enterococcus faecalis (VanA VRE, BM4166); assay: In vitro antimicrobial assay (MIC), VanA E. faecalis; type: cell-based
From the text: as §1, §2, §3

[9] = system: VanA VRE (E. faecalis BM 4166 and E. faecium ATCC BAA-2317); assay: Antimicrobial activity against VanA VRE (both strains); type: cell-based, Enterococcus faecalis; Enterococcus faecium
From the text: as §1, §2

[10] = system: VanA VRE (E. faecalis BM 4166 and E. faecium ATCC BAA-2317); assay: Cell wall permeability assay (propidium iodide uptake); type: cell-based, Enterococcus faecalis; Enterococcus faecium; conditions: 10 μM compound
From the text: The effect of the compounds on cell membrane permeability was examined by measuring cytoplasmic membrane uptake of the fluorescent probe propidium iodide in the same VanA vancomycin-resistant E. faecalis (BM 4166) and E. faecium (ATCC BAA-2317) strains. This fluorescent probe only enters cells with permeabilized cell membranes and is detected by the emission of fluorescence upon intracellular nucleic acid binding [Boulos et al., J Microbiol Methods 1999, 37(1):77-86].
Fresh, mid-log phase VanA VRE in pH 7.2 buffer at 25° C. were preincubated with propidium iodide (10 μM) for 5 minutes before the test compounds were added, monitoring the fluorescence emission at 617 nm (excitation at 535 nm) over time, both pre (5 minutes) and post (15 minutes) compound addition. Rapid and sustained increases in fluorescence intensity are observed immediately upon addition of test compounds that induce bacterial cell membrane permeability.
One day before a study was run, cultures of vancomycin-resistant Enterococcus faecalis (VanA VRE, BM4166) and Enterococcus faecium (VanA VRE, ATCC BAA-2317), were inoculated and grown in an orbital shaker at 37° C. in 100% brain-heart infusion broth for 12 hours. The above bacterial solution was subjected to a subculture to obtain fresh mid-log phase bacterial cells (total volume of bacterial suspension=7 mL, incubation time=6 hours, OD600=0.6). After the cultured bacteria were harvested (3000 rpm, 4° C., 20 minutes), the white bacterial precipitate was washed and resuspended in 5 mM glucose and 5 mM HEPES buffer (1:1, 500 μL, pH=7.2).
This bacterial suspension (130 μL) was charged into a 96-well black plate with a clear bottom (Corning 3650). The propidium iodide dye (10 μL, 150 μM DMSO solution) was added to the above suspension and the fluorescence was monitored at 25° C. for 5 minutes at 30 second intervals using a microplate reader (Molecular Devices®, Max Gemini EX) at an excitation wavelength of 535 nm and an emission wavelength of 617 nm. The test compound (150 μM, 10 μL) was added to the cell suspension and the fluorescence was monitored at 25° C. for an additional 15 minutes.

[11] = system: VanA VRE (E. faecalis BM4166 and E. faecium ATCC BAA-2317); assay: Resistance development study (serial passaging at 0.5×MIC); type: cell-based, Enterococcus faecalis; Enterococcus faecium; conditions: 0.5×MIC serial exposure, MICs monitored daily
Description: However, an additional and even more important feature of the expression of multiple independent mechanisms of action is a mechanism's impact on the rate at which bacterial resistance may emerge.
The MICs of the vancomycin analogues against vancomycin-resistant Enterococcus faecalis (VanA VRE, BM4166) and Enterococcus faecium (VanA VRE, ATCC BAA-2317) were determined. […] A new MIC assay was performed with the same protocol. This process was repeated for 50 passages, and the fold increase in MIC was determined at each passage. [****Pollard et al., J. Antimicrob. Chemother. 2012, 67:2665-2672.]

Row | SMILES | Antimicrobial Activity, MIC, VanA E. faecalis [1] [µg/mL] | Antimicrobial Activity, MIC, MRSA S. aureus [2] [µg/mL] | Antimicrobial Activity, MIC, VanB E. faecalis [3] [µg/mL] | Antimicrobial Activity, MIC, VanA E. faecium [4] [µg/mL] | Antimicrobial Activity, MIC, sensitive S. aureus [5] [µg/mL] | inhibition of bacterial cell wall synthesis (accumulation of 19) [6] | antibiotic susceptibility profile of the strain [7] | emergence of resistance on serial passaging [11] | other results
1 | CN[C@H](CC(C)C)C(=O)N[C@H]1C(=O)N[C@@H](CC(N)=O)C(=O)N[C@H]2C(=S)N[C@@H]3C(=O)N[C@H](C(=O)N[C@H](C(=O)O)c4cc(O)cc(O)c4-c4cc3ccc4O)[C@H](O)c3ccc(c(Cl)c3)Oc3cc2cc(c3OC2OC(CO)C(O)[C@H](O)[C@@H]2O[C@H]2CC(C)(N)[C@H](O)[C@H](C)O2)Oc2ccc(cc2Cl)[C@H]1O (some centres unmarked) [Compound 2] | >32 | >32 | >32 | >32 | >32 | do not effectively inhibit bacterial cell wall synthesis |  |  | 
2 | CNC(CC(C)C)C(=O)NC1C(=O)NC(CC(N)=O)C(=O)NC2CNC3C(=O)NC(C(=O)NC(C(=O)O)c4cc(O)cc(O)c4-c4cc3ccc4O)C(O)c3ccc(c(Cl)c3)Oc3cc2cc(c3OC2OC(CO)C(O)C(O)C2OC2CC(C)(N)C(O)C(C)O2)Oc2ccc(cc2Cl)[C@@H]1O (some centres unmarked) [Compound 4, [Ψ[CH2NH] Tpg^4]vancomycin] | 31 |  |  | 31 |  | inhibits bacterial cell wall biosynthesis; also recorded: equally active |  |  | MIC ([7]; Enterococcus faecium, read-out: Antimicrobial Activity, MIC, VanA E. faecium): 31 µg/mL (≈ 21.6 µM); MIC ([8]; Enterococcus faecalis, VRE, read-out: Antimicrobial Activity, MIC, VanA E. faecalis): 31 µg/mL (≈ 21.6 µM); MIC ([9]; Enterococcus, read-out: MIC against VanA VRE): 31 µg/mL (≈ 21.6 µM)
3 | CN[C@H](CC(C)C)C(=O)N[C@H]1C(=O)N[C@@H](CC(N)=O)C(=O)N[C@H]2C(=N)N[C@@H]3C(=O)N[C@H](C(=O)N[C@H](C(=O)O)c4cc(O)cc(O)c4-c4cc3ccc4O)[C@H](O)c3ccc(c(Cl)c3)Oc3cc2cc(c3OC2OC(CO)C(O)[C@H](O)[C@@H]2O[C@H]2CC(C)(NCc3ccc(-c4ccc(Cl)cc4)cc3)[C@H](O)[C@H](C)O2)Oc2ccc(cc2Cl)[C@H]1O (some centres unmarked) [Compound 7] | 0.005 | 0.06 | 0.06 | 0.005 | 0.03 |  |  |  | 
4 | CCCCCCCCCCCCCC[N+](C)(C)CCCNC(=O)[C@H]1NC(=O)[C@H]2NC(=O)[C@@H](NC[C@@H]3NC(=O)[C@H](CC(N)=O)NC(=O)[C@H](NC(=O)[C@@H](CC(C)C)NC)[C@H](O)c4ccc(c(Cl)c4)Oc4cc3cc(c4OC3OC(CO)C(O)[C@H](O)[C@@H]3O[C@H]3CC(C)(N)[C@H](O)[C@H](C)O3)Oc3ccc(cc3Cl)[C@H]2O)c2ccc(O)c(c2)-c2c(O)cc(O)cc21 (some centres unmarked) [Compound 13] |  |  |  |  |  | equally active |  |  | Antimicrobial Activity, MIC, VanA E. faecium ([7]; ATCC BAA-2317): 0.16 µg/mL; induced cell membrane permeability (propidium uptake) [10]: produced pronounced cell membrane permeability immediately upon addition; Antimicrobial Activity, MIC, VanA E. faecalis ([8]; BM 4166): 0.16 µg/mL; MIC against VanA VRE ([9]; both VanA VRE strains): 0.16 µg/mL; fold more potent than pocket analog 4 against VanA VRE ([9]; relative to Compound 4): 200 fold; fold more potent than C14-vancomycin (12) against VanA VRE ([9]; relative to Compound 12): > 10 fold; fold more potent than vancomycin against VanA VRE ([9]; relative to vancomycin (1)): > 1000 fold
5 | CC(=O)NC[C@H]1CN(c2ccc(N3CCOCC3)c(F)c2)C(=O)O1 [linezolid] |  |  |  |  |  |  | insensitive | arises much faster and is much more pronounced; also recorded: arise much faster and was more pronounced | 
6 | CN(C)c1cc(NC(=O)CNC(C)(C)C)c(O)c2c1C[C@H]1C[C@H]3[C@H](N(C)C)C(O)=C(C(N)=O)C(=O)[C@@]3(O)C(O)=C1C2=O [tigecycline] |  |  |  |  |  |  | sensitive | arises much faster and is much more pronounced; also recorded: arise much faster and was more pronounced | 
